In paper PMC3986399, “Discovery of Novel Allosteric Effectors Based on the Predicted Allosteric Sites for Escherichia coli D-3-Phosphoglycerate Dehydrogenase” (PLoS ONE, 2014):
“Also recorded” adds a separate entry of the source. Where two headings read alike, the source gives them in different places.

How the values were obtained:
PGDH [1] = target: T1, PGDH (Escherichia coli, UniProt P0A9T0); assay: Serine-compound competition experiment; type: biochemical; conditions: compound 40 µM; serine 1.6 to 200 µM
T1 construct: The PGDH coding region was ligated into the pET21a(+) vector; made in house; host or cells: E. coli BL21 (DE3)
Experimental: Serine-compound competition experiment
Serine-compound competition experiments were did like that for compound-substrate experiments, before the reaction was started, the enzyme was pre-incubated with the mixture of serine and compound for 6 minutes. During this process, compound was kept at a constant inhibitory concentration, and the serine concentrations were changed from 1.6 to 200
μM. The concentrations of compounds 1 and 2 were selected as 40 μM. […]

PGDH mutant S146A = target: T2, PGDH mutant S146A (Escherichia coli, UniProt P0A9T0, S146A); assay: PGDH enzyme assay, mutant S146A; type: biochemical
T2 construct: The PGDH coding region was ligated into the pET21a(+) vector; made in house; host or cells: E. coli BL21 (DE3)
Experimental: (§1) To evaluate the effects of compounds on PGDH activity, compounds were first examined to have no fluorescence absorption at 456 nm, and then pre-incubated with enzyme samples in the assay buffer (20 mM tris-(hydroxymethyl) aminomethane hydrochloride (Tris-HCl), pH 7.5, 1 mM DTT, 1 mM EDTA, and 0.25 mM NADH) for 6 min at 25°C. […] Fluorescence signals were recorded for 3 min with a kinetics mode program. The cofactor concentration in the assay buffer was 0.25 mM and the substrate concentration was 5 mM [28]. IC50 or AC50 values were obtained by fitting the data to a three-parameter Hill model of the graph of log dose against percentage inhibition or activation from at least three sets of experiments. Percentages of inhibition or activation were calculated according to the following equation: [drawing 1] in which Vo and Vi represent the maximum reaction rate of the enzyme incubated without or with compounds and Vn represents the maximum degradation rate of NADH.
(§2) All mutagenesis experiments were carried out according to the instructions of the QuikChange site-directed mutagenesis (Stratagene). The plasmid pET-21a(+)-containing wild-type (WT) PGDH was mutated to obtain the mutants E129A, S146A, F147A, K256A, K152AK230A, and E129AK256A. The DNA sequences of all mutants were verified by DNA sequencing. […]

E. coli PGDH (wild type) = target: T3, E. coli PGDH (wild type) (Escherichia coli, UniProt P0A9T0); assay: PGDH enzyme assay (NADH fluorescence, α-ketoglutarate substrate), wild type; type: biochemical; conditions: for inhibition at 50 µM: compound 50 µM; for maximum enzyme activity (residual activity, activation): low compound concentration, >100% = activation
T3 construct: The PGDH coding region was ligated into the pET21a(+) vector; made in house; host or cells: E. coli BL21 (DE3)
Experimental: as §1

PGDH mutant F147A [2] = target: T4, PGDH mutant F147A (Escherichia coli, UniProt P0A9T0, F147A); assay: PGDH enzyme assay, mutant F147A; type: biochemical
T4 construct: The PGDH coding region was ligated into the pET21a(+) vector; made in house; host or cells: E. coli BL21 (DE3)
Experimental: as §1, §2

PGDH (WT) = target: T5, PGDH (WT) (Escherichia coli, UniProt P0A9T0); assay: SPR direct binding to immobilized PGDH
T5 construct: The PGDH coding region was ligated into the pET21a(+) vector; made in house; host or cells: E. coli BL21 (DE3)
Experimental: (§3) PGDH and its mutants were immobilized on a CM5 sensor chip by using standard amine-coupling at 25°C with running buffer HBS-P (20 mM […], 0.05% surfactant P-20, pH 7.4), respectively. […] A reference flow cell was activated and blocked in the absence of PGDH. […] Regeneration was achieved by extended washing with the running buffer after each sample injection. […] In the binding site verification SPR experiments, the sensor chip surface was immobilized with WT PGDH and its mutants to a RU of 4000, respectively. The analytes, compounds 1 and 2, were injected over the chip at a fixed concentration of 50 and 25 µM, respectively.

PGDH mutant E129AK256A [3] = target: T6, PGDH mutant E129AK256A (Escherichia coli, UniProt P0A9T0, E129A/K256A); assay: SPR binding site verification, site I mutant E129AK256A; conditions: compound 1 at 50 µM, compound 2 at 25 µM
T6 construct: The PGDH coding region was ligated into the pET21a(+) vector; made in house; host or cells: E. coli BL21 (DE3)
Experimental: as §3
(§4) We also tested whether compounds 1 and 2 might interact with the other allosteric site (site II) we discovered before. The key binding residue in site II, Y410 was mutated to A. The binding of these two compounds with the wild type enzyme, Y410A, and two site I mutants (F147A, E129AK256A) were tested using SPR direct binding assay. The immobilization levels for WT, Y410A, F147A and E129AK256A were kept almost the same (3506, 3792, 3756 and 3600 RU, respectively) and the concentrations of compounds 1 and 2 were kept at 50 µM and 25 µM. […] This verified that both compounds 1 and 2 bind specifically to the site I as designed.

PGDH mutant Y410A = target: T7, PGDH mutant Y410A (Escherichia coli, UniProt P0A9T0, Y410A); assay: SPR binding site verification, site II mutant Y410A; conditions: compound 1 at 50 µM, compound 2 at 25 µM
T7 construct: The PGDH coding region was ligated into the pET21a(+) vector; made in house
Experimental: as §3, §4

PGDH mutant F147A [4] = target: T4, PGDH mutant F147A; assay: SPR binding site verification, site I mutant F147A; conditions: compound 1 at 50 µM, compound 2 at 25 µM
Experimental: as §3, §4

PGDH [5] = target: T1, PGDH; assay: Compound-substrate competition experiments; type: biochemical; conditions: for competition with the substrate: constant compound concentration, increasing α-ketoglutarate; for inhibition at 50 µM: substrate increased from 156 µM to 10 mM, compound 50 µM, read-out: percentage of inhibition with increasing substrate
Experimental: To investigate competition effects between the compounds and the substrate α-ketoglutarate, we performed compound-substrate competition experiments as follows:
Before α-ketoglutarate was added to start the reaction, the enzyme sample was pre-incubated with the cofactor and the compound for 6 min at 25°C. […] The cofactor NADH concentration was kept constant at 0.25 mM. […]
Serine-compound competition experiment […]
Competition experiments for analogs and the substrate
1-3 were kept at 92, 100, and 120 μM, while gradually increasing the substrate
concentration from 78 μM to 625 μM. […]

PGDH [6] = target: T1, PGDH; assay: Enzyme kinetic analysis (Michaelis-Menten); type: biochemical; conditions: compound 0 to 120 µM
Experimental: As in the competition experiments, enzyme reaction velocity vs. substrate relationships were measured at various compound concentrations. The compound concentrations used were 120, 80, 40, 24, 8, 4.8, 1.6, and 0.32 µM.
To evaluate the effects of the compounds on enzyme kinetics, Michaelis-Menten plots of PGDH incubated with different concentrations of compounds were measured. The apparent kinetic parameters kcat and Km were estimated by non-linear curve-fitting using Graphpad Prism 5.0 software, and their values are shown in Figure 6. […] The kcat of the pure enzyme was about 2.6 s^−1, which was in between the kcat values of the enzyme at the molecular concentrations of 8 µM and 24 µM.

PGDH mutant K152AK230A = target: T8, PGDH mutant K152AK230A (Escherichia coli, UniProt P0A9T0, K152A/K230A); assay: PGDH enzyme assay, mutant K152AK230A; type: biochemical
T8 construct: The PGDH coding region was ligated into the pET21a(+) vector; made in house; host or cells: E. coli BL21 (DE3)
Experimental: as §1, §2

PGDH mutant E129A = target: T9, PGDH mutant E129A (Escherichia coli, UniProt P0A9T0, E129A); assay: PGDH enzyme assay, mutant E129A; type: biochemical
T9 construct: The PGDH coding region was ligated into the pET21a(+) vector; made in house; host or cells: E. coli BL21 (DE3)
Experimental: as §1, §2

PGDH mutant K256A = target: T10, PGDH mutant K256A (Escherichia coli, UniProt P0A9T0, K256A); assay: PGDH enzyme assay, mutant K256A; type: biochemical
T10 construct: The PGDH coding region was ligated into the pET21a(+) vector; made in house; host or cells: E. coli BL21 (DE3)
Experimental: as §1, §2

PGDH mutant E129AK256A [7] = target: T6, PGDH mutant E129AK256A; assay: PGDH enzyme assay, mutant E129AK256A; type: biochemical
Experimental: as §1, §2

PGDH from pea = conditions: PGDH from peas, cited from earlier work
[8] = wild type PGDH, substrate 5 mM, NADH 0.25 mM, read-out: IC50

## O=C1NC(=S)NC(=O)C1=Cc1ccc(OC(=O)c2ccc3nc(-c4ccccc4)c(-c4ccccc4)nc3c2)cc1 [Compound 1]
PGDH [1]
  influence on the inhibitory ability of serine: no significant effect; also recorded: not significantly influenced
PGDH mutant S146A
  IC50: 175 ± 88 µM
E. coli PGDH (wild type)
  IC50: 34.8 ± 1.3 µM
E. coli PGDH (wild type); substrate 5 mM
  inhibition at 50 µM: ~50%
  maximum enzyme activity (residual activity, activation): about 140%
  concentration above which the compound is an inhibitor: > 16 µM
PGDH mutant F147A [2]
  IC50: 181 ± 26 µM
PGDH (WT)
  Kd: 42.6 ± 2.1 µM
PGDH mutant E129AK256A [3]
  compound binding ability to E129AK256A versus WT: a large decrease in compound binding ability
PGDH mutant Y410A
  compound binding ability to Y410A versus WT: retained the same extent of compound binding ability as WT
PGDH mutant F147A [4]
  compound binding ability to F147A versus WT: a large decrease in compound binding ability
PGDH [5]
  competition with the substrate: do not competitively bind to the same site
  inhibition at 50 µM: 20 to 50%
PGDH [6]
  effect on Km / substrate affinity of the enzyme: enhanced the substrate affinity for the enzyme
PGDH mutant K152AK230A
  IC50: > 200 µM

## Cc1ccc(N2NC(=O)/C(=C/c3ccc(-c4ccc(S(=O)(=O)Nc5nccs5)cc4)o3)C2=O)cc1C [Compound 2]
PGDH [1]
  influence on the inhibitory ability of serine: no significant effect; also recorded: not significantly influenced
PGDH mutant E129A
  IC50: 99 ± 13 µM
PGDH mutant K256A
  IC50: > 200 µM
E. coli PGDH (wild type); substrate 5 mM
  inhibition at 50 µM: ~50%
  maximum enzyme activity (residual activity, activation): 163%
  concentration above which the compound is an inhibitor: above 1.6 µM
  concentration at which activation starts: about 2 nM
  concentration of highest activation: about 64 nM
E. coli PGDH (wild type); fit of activation dose response curve, substrate 5 mM
  AC50: 0.0347 µM
E. coli PGDH (wild type); [8]
  IC50: 58 ± 9 µM
PGDH mutant E129AK256A [7]
  IC50: > 200 µM
PGDH mutant F147A [2]
  IC50: 158 ± 22 µM
PGDH (WT); SPR, 1:1 Langmuir binding model, PGDH 800 RU, read-out: KD
  Kd: 19 ± 1.9 µM
PGDH mutant E129AK256A [3]
  compound binding ability to E129AK256A versus WT: a large decrease in compound binding ability
PGDH mutant Y410A
  compound binding ability to Y410A versus WT: retained the same extent of compound binding ability as WT
PGDH mutant F147A [4]
  compound binding ability to F147A versus WT: a large decrease in compound binding ability
PGDH [5]
  competition with the substrate: do not competitively bind to the same site
  inhibition at 50 µM: 20 to 50%
PGDH [6]
  effect on Km / substrate affinity of the enzyme: enhanced the substrate affinity for the enzyme

## CSCC[C@H](N)C(=O)O [L-methionine]
PGDH from pea; at maximal activation
  increase in enzyme activity: four- to five
PGDH from pea
  concentration of maximal activation: 10 mM

## Cc1ccccc1C(=O)Nc1ccccc1C(=O)N/N=C/c1ccccc1OCc1ccccc1[N+](=O)[O-] [Compound 3]
E. coli PGDH (wild type); compound 130 µM, substrate 5 mM
  inhibition at 130 µM: ~50%
E. coli PGDH (wild type); partial dose-inhibition curve due to solubility restriction
  maximal inhibition rate: 61.9%
E. coli PGDH (wild type); [8]
  IC50: 131 ± 12 µM
PGDH (WT); no reliable KD obtained
  SPR binding ability: weak binding ability
PGDH [5]
  competition with the substrate: percentage inhibition did not change
